{"source": "patent EP4578444A1", "about": "“APPLICATION OF BETA-CARYOPHYLLENE FOR TARGETED EPIGENETIC REGULATION AND POTENTIAL PREVENTION OF WATER-OSMOTIC CONDITIONS OF THE MUCOUS MEMBRANES AND EPITHELIA” (SkyLab AG, priority 2023, dated 2025)", "key": {"[1]": {"system": "skin and mucous membrane keratinocytes", "assay": "MTT cytotoxicity / cell viability of keratinocytes", "assay_type": "cell-based", "settings": "70% cell survival", "method": "(§1) Beta-caryophyllene was studied for cytotoxicity and assessed for viability of skin and mucous membrane keratinocytes to determine the maximum permissible concentration for external and local application.\n(§2) Cell viability was determined colorimetrically using MTT stain (Sigma Chemical, St. Louis, Mo.). The preparation was treated for the test in dimethylsulphoxide culture medium and added to a 96-well plate at serial dilutions ranging from 1.000 to 0.0032 mg/mL using a dilution factor of 3.16. Pre-culture was carried out for 48 hours before the test. Then MTT was added to the culture at a concentration of 0.75 mg/mL (100 µl/well) and incubated for another 4 hours. The contents of the well were removed, and 100 µl of isopropanol was added to solubilize the formed formazan crystals. Absorbance was determined in each well at 570 nm using a Multiskan GO monochromator (Thermo Scientific, Finland). Cell viability was expressed as a percentage and calculated by the equation: % Viable cells = (Absorbance of evaluated product incubated cells)/(Control absorbance) × 100 [formula]\n(§3) Three biological replicates were made. Statistical data processing was carried out to calculate the mean, standard deviation, and trend for each biological replicate. For the statistical evaluation ANOVA test was used allowing the measurement of variation of the results, comparing the data between all the groups. […]"}, "[2]": {"assay": "MTT cytotoxicity / cell viability of keratinocytes", "assay_type": "cell-based", "settings": "keratinocytes, throughout the selected concentration range (0.01-0.3 wt.%), threshold value of 70%, read-out: viability of skin and epithelial keratinocytes", "method": "as §1, §2, §3"}}, "data": [{"smiles": "C=C1CC/C=C(\\C)CC[C@@H]2[C@@H]1CC2(C)C", "note": "[Beta-caryophyllene]", "values": [{"measurement": "EC70", "setting": "[1]", "result": 316.5, "unit": "µg/mL"}, {"measurement": "viability", "setting": "[2]", "result": "> 70", "unit": "%"}]}]}
